# In US8617563B2, “Antichlamydial agents” (Duke University, priority 2011, dated 2013):
# Where no end group is shown, it is not given here.
# Assays:
# [1] = test system: mouse lung fibroblasts infected with C. trachomatis and C. muridarum; assay: Cell death in infected mouse lung fibroblasts from ICE−/− and ASC−/− knockout mice; format: cell-based; conditions: knockout cells, unlike wild-type counterparts
# Description: FIG. 12 depicts (A) low-magnification view of C. trachomatis LGV-L2 infected HeLa monolayers (30 h) treated with SEQ ID NO:7 or SEQ ID NO:11 peptides. (B) The frequency of condensed nuclei in treated cells is dependent on peptide concentration and Chlamydia infection. (C-D) Toxicity of CPAF inhibitors to Chlamydia-infected cells is observed in non-myeloid cells including human embryonic kidney cells HEK293 (C) and mouse embryo fibroblasts (D). […] (F-G) Cell death induced by anti-CPAF peptides requires Caspase-1 activation. HeLa cells infected with C. muridarum were treated with Ac-YVAD-CMK at 2 hpi, SEQ ID NO:7 peptide or SEQ ID NO:11 control peptide at 12 hpi and the percentage of infected cells with condensed nuclei was assessed at 48 hpi (F). […] The percentage of infected cells with condensed nuclei was assessed at 48 hpi (G). […] Cell death in infected and uninfected cells treated with CPAF inhibitory peptides or control peptides was determined by counting the number of condensed nuclei of ˜1000 cells.
# FIG. 13 depicts (A) that Caspase-1 inhibitors block Chlamydia-mediated cell death. […] Cells were fixed and the percentage of cells with condensed nuclei determined at 24 hpi. […] Infected cells were labeled with a cell-permeable fluorescent substrate of Caspase-1 and treated with inhibitory peptides, and Caspase-1 activity was monitored by flow cytometry. […]
# CPAF = CPAF (Chlamydia trachomatis serovar D, UniProt O84866); format: biochemical, C. trachomatis; set-up: 6xHis; made in house; host or cells: E. coli (pET30b); conditions: GST-chlamydial substrates in presence of peptides
# Chain of CPAF (O84866 1-234, added parts left off): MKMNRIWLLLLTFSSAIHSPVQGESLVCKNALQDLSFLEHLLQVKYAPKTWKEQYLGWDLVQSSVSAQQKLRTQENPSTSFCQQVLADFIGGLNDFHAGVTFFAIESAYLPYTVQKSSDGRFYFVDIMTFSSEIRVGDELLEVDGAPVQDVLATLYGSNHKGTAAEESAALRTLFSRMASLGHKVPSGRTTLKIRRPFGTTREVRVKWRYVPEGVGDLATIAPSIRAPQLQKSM
# Chain of CPAF (O84866 276-601): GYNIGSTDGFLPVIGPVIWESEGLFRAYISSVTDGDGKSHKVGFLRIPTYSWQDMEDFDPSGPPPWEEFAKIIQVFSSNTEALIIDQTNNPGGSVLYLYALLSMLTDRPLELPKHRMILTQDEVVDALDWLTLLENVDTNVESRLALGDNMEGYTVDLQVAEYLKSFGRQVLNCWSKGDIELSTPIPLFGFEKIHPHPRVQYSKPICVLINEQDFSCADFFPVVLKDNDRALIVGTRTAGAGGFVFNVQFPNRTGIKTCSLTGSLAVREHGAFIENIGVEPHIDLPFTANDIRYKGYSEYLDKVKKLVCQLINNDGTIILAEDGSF
# Description: FIG. 4 depicts (A) Recombinant Chlamydia ORFs were tested for sensitivity to host and bacterial derived proteases. […] Purified his-tagged CPAF was incubated with GST-tagged chlamydial substrates at 37° C. for 20 min with increasing amounts of lactacystin. Cleavage products were run on an SDS PAGE gel and visualized with Coomassie blue staining. (C) Schematic summary of CPAF targets. […] Membranes from Chlamydia-infected HeLa cells were harvested and purified at 0, 24, 36 and 48 hours post-infection, and the abundance of the chlamydial proteins Ct005, IncC and IncD were monitored with specific antibodies. Na/K ATPase and IncG served as host and bacterial-loading controls, respectively.
# Cytosols from Chlamydia-infected HeLa cells (40 hrs) or recombinant his-tagged CPAF were pre-treated with rabbit polyclonal anti-CPAF or anti-IncA antisera, and incubated with GST-tagged Chlamydia proteins for 20 min at 37° C. […] Three example proteins shown include a type-III secretion (T3S) core component (CdsQ) a T3S chaperone (Mcsc) and a T3S needle component (Ct584). Processing of recombinant proteins in A-B were monitored by immunoblot analysis with specific antibodies. (C) Protease inhibitor profile of recombinant CPAF. Example shown for the chlamydial substrate GST-IncC. Degradation products were visualized by SDS-PAGE followed by staining with Coomassie blue. […]
# Uninfected and HeLa cells pre-infected with L2 for 30 hrs were treated with inhibitory peptides and infected with EBs for 10 min Tarp translocation was indirectly visualized with an anti-phosphotyrosine antibody (A) and quantified by counting 50 separate cells (B). The stability of newly translocated Tarp was assessed by infecting cells as in (A) but with S^35-labeled EBs, followed by sequential immunoprecipitation of Tarp and MOMP and Phosphoimager analysis of precipitated material (C (I-IV)). […] IC50 values were determined by assessing CPAF cleavage of an Abz-tagged CPAF substrate (SEQ ID NO:9) by HPLC. […] Extracellular bacteria were determined. […] The number of internalized EBs was quantified per cell (H). […]
substance,measurement,setting,value
SLFYSPMVPHFWAELRNHYATSGLKRRRRRRRRR-NH2 [SEQ ID NO:7],Host cell death in infected ICE−/− and ASC−/− mouse lung fibroblasts,[1],resistant to host cell death
same,Inhibition of degradation of CPAF substrates in vitro,CPAF,broadly inhibited degradation of CPAF substrates
